Data as given in US9181234B2, “Antibacterial compounds” (priority 2010, dated 2015).
Converted amounts (≈) assume the structure as drawn.

Experiments:
[1] = tested on: Haemophilus influenzae (Isolate ID ATCC 49247); assay: Antibacterial activity, MIC, H. influenzae; assay type: cell-based; conditions: Haemophilus influenzae, ATCC49247; Gram negative strain; broth microdilution or agar dilution
In short: (§1)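 Susceptibility testing run in liquid or on solid media, with MIC values obtained by the CLSI-described broth microdilution or agar dilution method.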

[2] = tested on: Staphylococcus aureus (Isolate ID ATCC 29213); assay: Antibacterial activity, MIC, S. aureus; assay type: cell-based; conditions: Staphylococcus aureus, ATCC29213, Gram positive strain; broth microdilution or agar dilution
In short: as §1

[3] = tested on: Streptococcus pyogenes (Isolate ID ATCC 51339); assay: Antibacterial activity, MIC, S. pyogenes; assay type: cell-based; conditions: Streptococcus pyogenes, ATCC51339, Gram positive strain; broth microdilution or agar dilution
In short: as §1

physchem = conditions: kinetic from dmso stock
In short: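 DMSO doubling dilutions were diluted twenty-fold into 100 mM citrate (pH 4), PBS (pH 7.4) or carbonate-bicarbonate (pH 9). After 24 h equilibration at room temperature, absorbance was read at 620 nm. The reported value is the highest concentration without measurable precipitate.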

[4] = tested on: Enterococcus faecalis (Isolate ID ATCC 29212); assay: Antibacterial activity, MIC, E. faecalis; assay type: cell-based; conditions: Enterococcus faecalis, ATCC29212; Gram positive strain; broth microdilution or agar dilution
In short: as §1

[5] = pH 7.4, aqueous buffer, Solubility (pH 7.4)
[6] = pH 7.4, aqueous buffer, Solubility Range
[7] = pH 7.4, aqueous buffer, Max Solubility
[8] = pH 7.4, aqueous buffer, Solubility Range (maximum solubility)
[9] = pH 9, aqueous buffer, Max Solubility
[10] = pH 9, aqueous buffer, Solubility Range (maximum solubility)

| SMILES | MIC [1] [µg/mL] | MIC [2] [µg/mL] | MIC [3] [µg/mL] | solubility at 24 h (physchem; [5]) [µg/mL] | solubility at 24 h (physchem; [6]) [µg/mL] | MIC [4] [µg/mL] | solubility at 24 h (physchem; [7]) [µg/mL] | solubility at 24 h (physchem; [8]) [µg/mL] | solubility at 24 h (physchem; [9]) [µg/mL] | solubility at 24 h (physchem; [10]) [µg/mL] |
| --- | --- | --- | --- | --- | --- | --- | --- | --- | --- | --- |
| CCNC(=O)Nc1nc2cc(-c3cnc(N4CCC(C(=O)O)(c5ccccc5)CC4)nc3)cc(-c3ccccn3)c2s1 [Compound 129] | > 16 | 0.25 to 1 (≈ 0.431 to 1.73 µM) | 0.25 to 1 (≈ 0.431 to 1.73 µM) | 12.5 (≈ 21.6 µM) | 12.5 to 400 (≈ 21.6 to 690 µM) | ≤ 0.25 |  |  |  |  |
| CCNC(=O)Nc1nc2cc(-c3cnc(N4CCC(C#N)(C(=O)O)CC4)nc3)cc(-c3ccccn3)c2s1 [Compound 130] | > 16 | > 16 | 1 to 16 (≈ 1.89 to 30.3 µM) | 200 (≈ 378 µM) | 12.5 to 400 (≈ 23.6 to 757 µM) | 1 to 16 (≈ 1.89 to 30.3 µM) |  |  |  |  |
| CCNC(=O)Nc1nc2cc(-c3cnc(N4CCC(C(=O)O)(S(C)(=O)=O)CC4)nc3)cc(-c3ccccn3)c2s1 [Compound 133] | > 16 | > 16 | 1 to 16 (≈ 1.72 to 27.5 µM) | ≥ 800 | > 800 | 1 to 16 (≈ 1.72 to 27.5 µM) |  |  |  |  |
| CCNC(=O)Nc1nc2cc(-c3cnc(N4CCC(Cc5ccccc5)(C(=O)O)CC4)nc3)cc(-c3ccccn3)c2s1 [Compound 134] | > 16 | ≤ 0.25 | 0.25 to 1 (≈ 0.421 to 1.68 µM) | 100 (≈ 168 µM) | 12.5 to 400 (≈ 21.1 to 674 µM) | ≤ 0.25 |  |  |  |  |
| CCNC(=O)Nc1nc2cc(-c3cnc(N4CCC(C)(C(=O)O)CC4)nc3)cc(C(=O)Nc3nccs3)c2s1 [Compound 145, 1-[5-[2-(ethylcarbamoylamino)-7-(thiazol-2-ylcarbamoyl)-1,3-benzothiazol-5-yl]pyrimidin-2-yl]-4-methyl-piperidine-4-carboxylic acid] | > 16 | > 16 | 1 to 16 (≈ 1.76 to 28.2 µM) | ≥ 800 | > 800 | 0.25 to 1 (≈ 0.441 to 1.76 µM) |  |  |  |  |
| CCNC(=O)Nc1nc2cc(-c3cnc(N4CCC(C)(C(=O)O)CC4)nc3)cc(NC(=O)c3ncccn3)c2s1 [Compound 146, 1-[5-[2-(ethylcarbamoylamino)-7-(pyrimidine-2-carbonylamino)-1,3-benzothiazol-5-yl]pyrimidin-2-yl]-4-methyl-piperidine-4-carboxylic acid] | > 16 | > 16 | > 16 | 50 (≈ 89 µM) | 12.5 to 400 (≈ 22.3 to 712 µM) | > 16 |  |  |  |  |
| CCNC(=O)Nc1nc2cc(-c3cnc(N4CCC(C)(C(=O)O)CC4)nc3)cc(C#CC3CCCC3)c2s1 [Compound 150] | > 16 | 0.25 to 1 (≈ 0.469 to 1.88 µM) | > 16 | ≥ 800 | > 800 | ≤ 0.25 | ≥ 800 | > 800 |  |  |
| CCNC(=O)Nc1nc2cc(-c3cnc(N4CCC(C)(C(=O)O)CC4)nc3)cc(C#Cc3cccc(OC)n3)c2s1 [Compound 152, 1-[5-[2-(ethylcarbamoylamino)-7-[2-(6-methoxy-2-pyridyl)ethynyl]-1,3-benzothiazol-5-yl]pyrimidin-2-yl]-4-methyl-piperidine-4-carboxylic acid] | 1 to 16 (≈ 1.75 to 28 µM) | ≤ 0.25 | ≤ 0.25 | 100 (≈ 175 µM) | 12.5 to 400 (≈ 21.9 to 700 µM) | ≤ 0.25 |  |  | ≥ 800 | > 800 |
| CCNC(=O)Nc1nc2cc(-c3cnc(N4CCC(C)(C(=O)O)CC4)nc3)cc(C#Cc3nnc(C)s3)c2s1 [Compound 153] | 1 to 16 (≈ 1.78 to 28.4 µM) | 0.25 to 1 (≈ 0.444 to 1.78 µM) | 0.25 to 1 (≈ 0.444 to 1.78 µM) | 100 (≈ 178 µM) | 12.5 to 400 (≈ 22.2 to 711 µM) | ≤ 0.25 |  |  | 400 (≈ 711 µM) | 400 to 800 (≈ 711 to 1420 µM) |
| CCNC(=O)Nc1nc2cc(-c3cnc(N4CCC(C)(C(=O)O)CC4)nc3)cc(C#Cc3ncccn3)c2s1 [Compound 154] | 1 to 16 (≈ 1.84 to 29.5 µM) | 1 to 16 (≈ 1.84 to 29.5 µM) | 0.25 to 1 (≈ 0.461 to 1.84 µM) | 200 (≈ 369 µM) | 12.5 to 400 (≈ 23 to 737 µM) | ≤ 0.25 |  |  | 400 (≈ 737 µM) | 400 to 800 (≈ 737 to 1470 µM) |
| CCNC(=O)Nc1nc2cc(-c3cnc(N4CCC(C)(C(=O)O)CC4)nc3)cc(C#Cc3ccncn3)c2s1 [Compound 155] | 1 to 16 (≈ 1.84 to 29.5 µM) | 1 to 16 (≈ 1.84 to 29.5 µM) | 0.25 to 1 (≈ 0.461 to 1.84 µM) | 400 (≈ 737 µM) | 400 to 800 (≈ 737 to 1470 µM) | ≤ 0.25 |  |  | ≥ 800 | > 800 |

Now from value to compound:

| MIC [1] [µg/mL] | MIC [2] [µg/mL] | MIC [3] [µg/mL] | solubility at 24 h (physchem; [5]) [µg/mL] | solubility at 24 h (physchem; [6]) [µg/mL] | MIC [4] [µg/mL] | solubility at 24 h (physchem; [7]) [µg/mL] | solubility at 24 h (physchem; [8]) [µg/mL] | solubility at 24 h (physchem; [9]) [µg/mL] | solubility at 24 h (physchem; [10]) [µg/mL] | SMILES |
| --- | --- | --- | --- | --- | --- | --- | --- | --- | --- | --- |
| 1 to 16 (≈ 1.92 to 30.8 µM) | 1 to 16 (≈ 1.92 to 30.8 µM) | ≤ 0.25 | 100 (≈ 192 µM) | 12.5 to 400 (≈ 24.1 to 770 µM) | 0.25 to 1 (≈ 0.481 to 1.92 µM) |  |  |  |  | CCNC(=O)Nc1nc2cc(-c3cnc(N4CCC(O)(C(=O)O)CC4)nc3)cc(-c3ccccn3)c2s1 [Compound 131] |
| 1 to 16 (≈ 1.87 to 30 µM) | 0.25 to 1 (≈ 0.469 to 1.87 µM) | ≤ 0.25 | 400 (≈ 750 µM) | 400 to 800 (≈ 750 to 1500 µM) | ≤ 0.25 |  |  |  |  | CCNC(=O)Nc1nc2cc(-c3cnc(N4CCC(OC)(C(=O)O)CC4)nc3)cc(-c3ccccn3)c2s1 [Compound 132] |
| 1 to 16 (≈ 1.92 to 30.7 µM) | 1 to 16 (≈ 1.92 to 30.7 µM) | ≤ 0.25 | 400 (≈ 767 µM) | 400 to 800 (≈ 767 to 1530 µM) | ≤ 0.25 |  |  |  |  | CCNC(=O)Nc1nc2cc(-c3cnc(N4CCC(F)(C(=O)O)CC4)nc3)cc(-c3ccccn3)c2s1 [Compound 135] |
| 1 to 16 (≈ 1.83 to 29.3 µM) | ≤ 0.25 | ≤ 0.25 | 400 (≈ 733 µM) | 400 to 800 (≈ 733 to 1470 µM) | ≤ 0.25 |  |  |  |  | CCNC(=O)Nc1nc2cc(-c3cnc(N4CCC(C(=O)O)(C(C)C)CC4)nc3)cc(-c3ccccn3)c2s1 [Compound 137] |
| 1 to 16 (≈ 1.82 to 29.1 µM) | ≤ 0.25 | ≤ 0.25 | ≥ 800 | > 800 | ≤ 0.25 |  |  |  |  | CCNC(=O)Nc1nc2cc(-c3cnc(N4CCC(SC)(C(=O)O)CC4)nc3)cc(-c3ccccn3)c2s1 [Compound 138] |
| 1 to 16 (≈ 1.84 to 29.4 µM) | ≤ 0.25 | ≤ 0.25 | ≥ 800 | > 800 | ≤ 0.25 |  |  |  |  | C=CCC1(C(=O)O)CCN(c2ncc(-c3cc(-c4cnccn4)c4sc(NC(=O)NCC)nc4c3)cn2)CC1 [Compound 139, 4-allyl-1-[5-[2-(ethylcarbamoylamino)-7-pyrazin-2-yl-1,3-benzothiazol-5-yl]pyrimidin-2-yl]piperidine-4-carboxylic acid] |
| 1 to 16 (≈ 1.71 to 27.3 µM) | 0.25 to 1 (≈ 0.427 to 1.71 µM) | ≤ 0.25 | ≥ 800 | > 800 | ≤ 0.25 | ≥ 800 | > 800 |  |  | CCNC(=O)Nc1nc2cc(-c3cnc(N4CCC(CC(F)(F)F)(C(=O)O)CC4)nc3)cc(-c3ccccn3)c2s1 [Compound 140] |
| 1 to 16 (≈ 1.75 to 28 µM) | 1 to 16 (≈ 1.75 to 28 µM) | ≤ 0.25 | ≥ 800 | > 800 | ≤ 0.25 | ≥ 800 | > 800 |  |  | CCNC(=O)Nc1nc2cc(-c3cnc(N4CCC(C(=O)O)(C(F)(F)F)CC4)nc3)cc(-c3ccccn3)c2s1 [Compound 142, 1-[5-[2-(ethylcarbamoylamino)-7-(2-pyridyl)-1,3-benzothiazol-5-yl]pyrimidin-2-yl]-4-(trifluoromethyl)piperidine-4-carboxylic acid] |
| 0.25 to 1 (≈ 0.459 to 1.84 µM) | 0.25 to 1 (≈ 0.459 to 1.84 µM) | ≤ 0.25 | 400 (≈ 734 µM) | 400 to 800 (≈ 734 to 1470 µM) | ≤ 0.25 |  |  |  |  | CCNC(=O)Nc1nc2cc(-c3cnc(N4CCC(C)(C(=O)O)CC4)nc3)cc(C#Cc3cncn3C)c2s1 [Compound 144, 1-[5-[2-(ethylcarbamoylamino)-7-[2-(3-methylimidazol-4-yl)ethynyl]-1,3-benzothiazol-5-yl]pyrimidin-2-yl]-4-methyl-piperidine-4-carboxylic acid] |
| 1 to 16 (≈ 1.78 to 28.5 µM) | 1 to 16 (≈ 1.78 to 28.5 µM) | 0.25 to 1 (≈ 0.445 to 1.78 µM) | ≥ 800 | > 800 | ≤ 0.25 |  |  |  |  | CCNC(=O)Nc1nc2cc(-c3cnc(N4CCC(C)(C(=O)O)CC4)nc3)cc(CN(C)c3ncccn3)c2s1 [Compound 147, 1-[5-[2-(ethylcarbamoylamino)-7-[[methyl(pyrimidin-2-yl)amino]methyl]-1,3-benzothiazol-5-yl]pyrimidin-2-yl]-4-methyl-piperidine-4-carboxylic acid] |
| 0.25 to 1 (≈ 0.462 to 1.85 µM) | ≤ 0.25 | ≤ 0.25 | ≥ 800 | > 800 | ≤ 0.25 | ≥ 800 | > 800 |  |  | CCNC(=O)Nc1nc2cc(-c3cnc(N4CCC(C)(C(=O)O)CC4)nc3)cc(C#Cc3cccnc3)c2s1 [Compound 148] |
| 1 to 16 (≈ 1.78 to 28.5 µM) | 1 to 16 (≈ 1.78 to 28.5 µM) | 0.25 to 1 (≈ 0.446 to 1.78 µM) | ≥ 800 | > 800 | ≤ 0.25 | ≥ 800 | > 800 |  |  | CCNC(=O)Nc1nc2cc(-c3cnc(N4CCC(C)(C(=O)O)CC4)nc3)cc(NC(=O)c3ccccn3)c2s1 [Compound 149, 1-(5-(2-(3-ethylureido)-7-(picolinamido)benzo[d]thiazol-5-yl)pyrimidin-2-yl)-4-methylpiperidine-4-carboxylic acid] |
| 1 to 16 (≈ 1.85 to 29.5 µM) | 0.25 to 1 (≈ 0.462 to 1.85 µM) | 0.25 to 1 (≈ 0.462 to 1.85 µM) | 400 (≈ 739 µM) | 400 to 800 (≈ 739 to 1480 µM) | ≤ 0.25 |  |  | ≥ 800 | > 800 | CCNC(=O)Nc1nc2cc(-c3cnc(N4CCC(C)(C(=O)O)CC4)nc3)cc(C#Cc3ccncc3)c2s1 [Compound 151] |
